Measured values as given in ChEMBL document CHEMBL3045723, “Synthesis of novel 3-(5-sulfanyl-1,3,4-oxadiazol-2-yl)-2H-chromen-2-one condensed s-triazinyl piperazines and piperidines as antimicrobial agents” (2012).
Values after ≈ are worked out from the molar mass of the structure shown.

Experiments:
[1] = system: Salmonella typhi; test: Antibacterial activity against Salmonella enterica subsp. enterica serovar Typhi MTCC 733 after 24 hr; assay type: functional; conditions: MTCC 733, 24 h
[2] = system: Aspergillus niger; test: Antifungal activity against Aspergillus niger MTCC 282 after 48 hr; assay type: functional; conditions: MTCC 282, 48 h
[3] = system: Bacillus cereus; test: Antibacterial activity against Bacillus cereus MTCC 619 after 24 hr by agar disk diffusion test; assay type: functional
[4] = system: Staphylococcus aureus; test: Antibacterial activity against Staphylococcus aureus MTCC 96 after 24 hr; assay type: functional; conditions: MTCC 96, 24 h
[5] = system: Candida albicans; test: Antifungal activity against Candida albicans MTCC 183 after 48 hr; assay type: functional; conditions: MTCC 183, 48 h
[6] = system: Salmonella typhi; test: Antibacterial activity against Salmonella enterica subsp. enterica serovar Typhi MTCC 733 after 24 hr by agar disk diffusion test; assay type: functional
[7] = system: Shigella flexneri; test: Antibacterial activity against Shigella flexneri after 24 hr; assay type: functional
[8] = system: Candida albicans; test: Antifungal activity against Candida albicans MTCC 183 after 24 hr by agar disk diffusion test; assay type: functional
[9] = system: Klebsiella pneumoniae; test: Antibacterial activity against Klebsiella pneumoniae MTCC 109 after 24 hr; assay type: functional; conditions: MTCC 109, 24 h
[10] = system: Proteus vulgaris; test: Antibacterial activity against Proteus vulgaris MTCC 1771 after 24 hr; assay type: functional; conditions: MTCC 1771, 24 h
[11] = system: Pseudomonas aeruginosa; test: Antibacterial activity against Pseudomonas aeruginosa MTCC 741 after 24 hr by agar disk diffusion test; assay type: functional
[12] = system: Pseudomonas aeruginosa; test: Antibacterial activity against Pseudomonas aeruginosa MTCC 741; assay type: functional
[13] = system: Escherichia coli; test: Antibacterial activity against Escherichia coli MTCC 739 after 24 hr; assay type: functional; conditions: MTCC 739, 24 h
[14] = system: Staphylococcus aureus; test: Antibacterial activity against Staphylococcus aureus MTCC 96 after 24 hr by agar disk diffusion test; assay type: functional
[15] = system: Escherichia coli; test: Antibacterial activity against Escherichia coli MTCC 739 after 24 hr by agar disk diffusion test; assay type: functional
[16] = system: Aspergillus niger; test: Antifungal activity against Aspergillus niger MTCC 282 after 24 hr by agar disk diffusion test; assay type: functional
[17] = system: Bacillus cereus; test: Antibacterial activity against Bacillus cereus MTCC 619 after 24 hr; assay type: functional; conditions: MTCC 619, 24 h
[18] = system: Shigella flexneri; test: Antibacterial activity against Shigella flexneri after 24 hr by agar disk diffusion test; assay type: functional
[19] = system: Proteus vulgaris; test: Antibacterial activity against Proteus vulgaris MTCC 1771 after 24 hr by agar disk diffusion test; assay type: functional
[20] = system: Klebsiella pneumoniae; test: Antibacterial activity against Klebsiella pneumoniae MTCC 109 after 24 hr by agar disk diffusion test; assay type: functional
[21] = system: Escherichia coli; test: microbe, parasite or virus in culture; conditions: MTCC 739, 24 h, read-out: IZ
Description: Antibacterial activity against Escherichia coli MTCC 739 at 100 ug/disk after 24 hr by agar disk diffusion test

[22] = system: Pseudomonas aeruginosa; test: microbe, parasite or virus in culture; conditions: MTCC 741, 24 h, read-out: IZ
Description: Antibacterial activity against Pseudomonas aeruginosa MTCC 741 at 100 ug/disk after 24 hr by agar disk diffusion test

[23] = system: Bacillus cereus; test: Antibacterial activity against Bacillus cereus MTCC 619 at 100 ug/disk after 24 hr by agar disk diffusion test; assay type: functional; conditions: MTCC 619, 24 h, read-out: IZ
[24] = system: Shigella flexneri; test: Antibacterial activity against Shigella flexneri at 100 ug/disc after 24 hr by agar disk diffusion test; assay type: functional; conditions: read-out: IZ
[25] = system: Salmonella typhi; test: Antibacterial activity against Salmonella enterica subsp. enterica serovar Typhi MTCC 733 at 100 ug/disk after 24 hr by agar disk diffusion test; assay type: functional; conditions: MTCC 733, 24 h, read-out: IZ
[26] = system: Klebsiella pneumoniae; test: microbe, parasite or virus in culture; conditions: MTCC 109, 24 h, read-out: IZ
Description: Antibacterial activity against Klebsiella pneumoniae MTCC 109 at 100 ug/disk after 24 hr by agar disk diffusion test

[27] = system: Staphylococcus aureus; test: Antibacterial activity against Staphylococcus aureus MTCC 96 at 100 ug/disc after 24 hr by agar disk diffusion test; conditions: MTCC 96, 24 h, read-out: IZ
[28] = system: Proteus vulgaris; test: Antibacterial activity against Proteus vulgaris MTCC 1771 at 100 ug/disk after 24 hr by agar disk diffusion test; assay type: functional; conditions: MTCC 1771, 24 h, read-out: IZ

COc1ccc(N2CCN(c3nc(Oc4cccc5cccnc45)nc(Sc4nnc(-c5cc6ccccc6oc5=O)o4)n3)CC2)cc1
MIC [1]: 12.5 µg/mL (≈ 19 µM) | MIC [2]: 25 µg/mL (≈ 38 µM) | inhibition zone (IZ) [3]: 23 mm | MIC [4]: 25 µg/mL (≈ 38 µM) | MIC [5]: 50 µg/mL (≈ 75.9 µM) | inhibition zone (IZ) [6]: 24 mm | MIC [7]: 50 µg/mL (≈ 75.9 µM) | inhibition zone (IZ) [8]: 22 mm | MIC [9]: 100 µg/mL (≈ 152 µM) | MIC [10]: 100 µg/mL (≈ 152 µM) | inhibition zone (IZ) [11]: 23 mm | MIC [12]: 12.5 µg/mL (≈ 19 µM) | MIC [13]: 100 µg/mL (≈ 152 µM) | inhibition zone (IZ) [14]: 22 mm | inhibition zone (IZ) [15]: 17 mm | inhibition zone (IZ) [16]: 24 mm | MIC [17]: 12.5 µg/mL (≈ 19 µM) | inhibition zone (IZ) [18]: 22 mm | inhibition zone (IZ) [19]: 18 mm | inhibition zone (IZ) [20]: 19 mm

O=c1oc2ccccc2cc1-c1nnc(Sc2nc(Oc3cccc4cccnc34)nc(N3CCN(c4ccccc4)CC3)n2)o1
MIC [1]: 100 µg/mL (≈ 159 µM) | MIC [2]: 100 µg/mL (≈ 159 µM) | inhibition zone (IZ) [3]: 12 mm | MIC [4]: 100 µg/mL (≈ 159 µM) | MIC [5]: 100 µg/mL (≈ 159 µM) | inhibition zone (IZ) [6]: <10 mm | MIC [7]: 100 µg/mL (≈ 159 µM) | inhibition zone (IZ) [8]: <10 mm | MIC [9]: 100 µg/mL (≈ 159 µM) | MIC [10]: 100 µg/mL (≈ 159 µM) | inhibition zone (IZ) [11]: 13 mm | MIC [12]: 100 µg/mL (≈ 159 µM) | MIC [13]: 100 µg/mL (≈ 159 µM) | inhibition zone (IZ) [14]: <10 mm | inhibition zone (IZ) [15]: <10 mm | inhibition zone (IZ) [16]: <10 mm | MIC [17]: 100 µg/mL (≈ 159 µM) | inhibition zone (IZ) [18]: <10 mm | inhibition zone (IZ) [19]: 15 mm | inhibition zone (IZ) [20]: 11 mm

O=c1oc2ccccc2cc1-c1nnc(Sc2nc(Oc3cccc4cccnc34)nc(N3CCOCC3)n2)o1
MIC [1]: 100 µg/mL (≈ 181 µM) | MIC [2]: 100 µg/mL (≈ 181 µM) | inhibition zone (IZ) [3]: 15 mm | MIC [4]: 100 µg/mL (≈ 181 µM) | MIC [5]: 100 µg/mL (≈ 181 µM) | inhibition zone (IZ) [6]: 16 mm | MIC [7]: 100 µg/mL (≈ 181 µM) | inhibition zone (IZ) [8]: <10 mm | MIC [9]: 25 µg/mL (≈ 45.2 µM) | MIC [10]: 100 µg/mL (≈ 181 µM) | inhibition zone (IZ) [11]: 16 mm | MIC [12]: 100 µg/mL (≈ 181 µM) | MIC [13]: 100 µg/mL (≈ 181 µM) | inhibition zone (IZ) [14]: 14 mm | inhibition zone (IZ) [15]: <10 mm | inhibition zone (IZ) [16]: 12 mm | MIC [17]: 100 µg/mL (≈ 181 µM) | inhibition zone (IZ) [18]: 11 mm | inhibition zone (IZ) [19]: <10 mm | inhibition zone (IZ) [20]: 22 mm

O=C(O)c1cn(C2CC2)c2cc(N3CCNCC3)c(F)cc2c1=O [CIPROFLOXACIN]
MIC [1]: 0.39 µg/mL (≈ 1.18 µM) | zone of inhibition at 100 µg/disc [21]: 32 mm | MIC [4]: 1.56 µg/mL (≈ 4.71 µM) | zone of inhibition at 100 µg/disc [22]: 33 mm | zone of inhibition at 100 µg/disc [23]: 31 mm | MIC [7]: 1.56 µg/mL (≈ 4.71 µM) | zone of inhibition at 100 µg/disc [24]: 32 mm | zone of inhibition at 100 µg/disc [25]: 30 mm | MIC [9]: 0.78 µg/mL (≈ 2.35 µM) | MIC [10]: 0.39 µg/mL (≈ 1.18 µM) | zone of inhibition at 100 µg/disc [26]: 33 mm | MIC [12]: 0.78 µg/mL (≈ 2.35 µM) | zone of inhibition at 100 µg/disc [27]: 30 mm | zone of inhibition at 100 µg/disc [28]: 31 mm | MIC [17]: 0.39 µg/mL (≈ 1.18 µM)

O=c1oc2ccccc2cc1-c1nnc(Sc2nc(Oc3cccc4cccnc34)nc(N3CCN(c4cccc(Cl)c4)CC3)n2)o1
MIC [1]: 100 µg/mL (≈ 151 µM) | MIC [2]: 100 µg/mL (≈ 151 µM) | inhibition zone (IZ) [3]: 17 mm | MIC [4]: 100 µg/mL (≈ 151 µM) | MIC [5]: 50 µg/mL (≈ 75.4 µM) | inhibition zone (IZ) [6]: 17 mm | MIC [7]: 100 µg/mL (≈ 151 µM) | inhibition zone (IZ) [8]: 20 mm | MIC [9]: 100 µg/mL (≈ 151 µM) | MIC [10]: 100 µg/mL (≈ 151 µM) | inhibition zone (IZ) [11]: 14 mm | MIC [12]: 100 µg/mL (≈ 151 µM) | MIC [13]: 25 µg/mL (≈ 37.7 µM) | inhibition zone (IZ) [14]: 17 mm | inhibition zone (IZ) [15]: 25 mm | inhibition zone (IZ) [16]: 20 mm | MIC [17]: 100 µg/mL (≈ 151 µM) | inhibition zone (IZ) [18]: 19 mm | inhibition zone (IZ) [19]: 19 mm | inhibition zone (IZ) [20]: 15 mm

CCN1CCN(c2nc(Oc3cccc4cccnc34)nc(Sc3nnc(-c4cc5ccccc5oc4=O)o3)n2)CC1
MIC [1]: 100 µg/mL (≈ 172 µM) | MIC [2]: 100 µg/mL (≈ 172 µM) | inhibition zone (IZ) [3]: 13 mm | MIC [4]: 100 µg/mL (≈ 172 µM) | MIC [5]: 100 µg/mL (≈ 172 µM) | inhibition zone (IZ) [6]: 16 mm | MIC [7]: 100 µg/mL (≈ 172 µM) | inhibition zone (IZ) [8]: 13 mm | MIC [9]: 100 µg/mL (≈ 172 µM) | MIC [10]: 100 µg/mL (≈ 172 µM) | inhibition zone (IZ) [11]: 18 mm | MIC [12]: 100 µg/mL (≈ 172 µM) | MIC [13]: 100 µg/mL (≈ 172 µM) | inhibition zone (IZ) [14]: 15 mm | inhibition zone (IZ) [15]: 16 mm | inhibition zone (IZ) [16]: <10 mm | MIC [17]: 100 µg/mL (≈ 172 µM) | inhibition zone (IZ) [18]: 20 mm | inhibition zone (IZ) [19]: 12 mm | inhibition zone (IZ) [20]: 14 mm
